Legend:
Experiment in all cases: relative viability (nuclei count vs DMSO), 5 days (fraction); higher = more cells survive
[1] = compound: CC1=CC(=CC=C1)NC2=NC(=CS2)C3=CC=NC=C3 + CC1(C)CCC(c2ccc(Cl)cc2)=C(CN2CCN(c3ccc(C(=O)NS(=O)(=O)c4ccc(N[C@H](CCN5CCOCC5)CSc5ccccc5)c(S(=O)(=O)C(F)(F)F)c4)cc3)CC2)C1 [Navitoclax] (partner 0.5 µM)
In short: (§1)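 One day after seeding in 1536-well plates, lung cancer cell lines were dosed by pin tool. Dosing was either single-drug or a fixed anchor-drug dose plus five library-drug doses (not always all listed) in √10 steps. After 5 days, nuclei were stained in one fix-and-stain step and counted on 4× images, and relative viability is the nuclei count of treated wells over that of vehicle wells, given as the median of duplicate plates.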

[2] = compound: CC1=CC(=CC=C1)NC2=NC(=CS2)C3=CC=NC=C3 + COc1cc2c(Oc3ccc(NC(=O)C4(C(=O)Nc5ccc(F)cc5)CC4)cc3F)ccnc2cc1OCCCN1CCOCC1 [Foretinib] (partner 0.25 µM)
In short: as §1

Masitinib = compound: Cc1ccc(NC(=O)c2ccc(CN3CCN(C)CC3)cc2)cc1Nc1nc(-c2cccnc2)cs1 [Masitinib]
In short: (§2)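 Acceptance criteria were a control CV below 25% and at least one doubling per plate. Lung cancer cell lines in 1536-well plates got five library-drug doses (not always all listed) √10 apart by pinning and were left 5 days with no medium change. Viability divides treated-well nuclei by vehicle-well nuclei and is the median across plates. Nuclei were counted by MetaXpress from 4× Hoechst images.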

[3] = compound: CC1=CC(=CC=C1)NC2=NC(=CS2)C3=CC=NC=C3
In short: as §2

Cell Line	relative viability ([1]; first compound 0.08 µM)	relative viability ([1]; first compound 0.253 µM)	relative viability ([1]; first compound 0.8 µM)	relative viability ([1]; first compound 2.53 µM)	relative viability ([1]; first compound 8 µM)	relative viability ([2]; first compound 0.08 µM)	relative viability ([2]; first compound 0.253 µM)	relative viability ([2]; first compound 0.8 µM)	relative viability ([2]; first compound 2.53 µM)	relative viability ([2]; first compound 8 µM)	relative viability (Masitinib; 0.01 µM)	relative viability (Masitinib; 0.03162 µM)	relative viability (Masitinib; 0.1 µM)	relative viability (Masitinib; 0.3162 µM)	relative viability (Masitinib; 1 µM)	relative viability ([3]; 0.08 µM)	relative viability ([3]; 0.253 µM)	relative viability ([3]; 0.8 µM)	relative viability ([3]; 2.53 µM)	relative viability ([3]; 8 µM)
LOU-NH91	0.611	0.619	0.625	0.774	0.434	0.794	0.853	0.807	0.896	0.903	0.839	0.888	0.925	0.838	0.904	0.826	0.849	0.943	0.905	0.851
NCI-H322M	1.19	1.12	1.19	1.29	1.12	0.788	0.924	0.89	1.01	0.915	0.934	0.948	0.933	0.897	0.848	0.819	0.845	0.948	1.02	0.961
NCI-H520	1.04	1.09	1.15	1.12	1.15	0.773	0.778	0.71	0.647	0.938	1.01	1.11	1.24	0.999	1.01	0.922	1.06	1.03	1.08	0.943
NCI-H727	0.458	0.372	0.383	0.345	0.269	–	0.837	0.785	0.79	0.71	0.947	0.948	1.08	0.945	0.92	0.698	0.737	0.808	0.791	0.924
NCI-H1944	1.03	1.01	1.05	1.01	1.01	0.863	0.85	0.862	0.75	0.777	–	0.972	–	0.799	0.955	0.871	0.912	0.958	0.765	0.809
NCI-H1755	0.923	0.937	0.846	0.824	0.679	0.862	0.835	0.823	0.758	0.664	–	0.935	0.886	1.02	0.935	0.926	0.942	0.866	0.857	0.697
NCI-H1299	0.981	0.99	0.986	1.07	1.01	1	1.06	0.993	1.01	0.897	1.06	1.01	1.05	1.04	0.984	0.981	0.997	0.968	1.02	0.937
H3255	0.573	0.304	0.561	0.533	0.496	0.895	0.464	0.909	0.822	0.875	0.743	0.986	0.766	0.784	0.906	0.916	0.931	0.984	0.934	0.903
201T	1.2	1.22	1.21	1.26	0.993	0.835	–	0.939	0.759	0.871	0.79	1.03	0.825	0.783	0.976	0.939	0.959	0.959	0.74	0.712
NCI-H2228	0.866	1.07	0.622	0.969	0.655	0.705	0.955	0.766	0.893	0.892	0.998	0.808	1.16	1.04	1.06	0.838	0.948	0.784	0.91	0.726
HOP-62	0.865	1.01	1.13	1.11	1.01	1.08	1.07	1.12	1.15	1.04	0.954	0.995	0.962	1.08	1.01	0.952	0.972	1.08	0.997	0.966
CAL-12T	1.19	1.06	1.16	1.05	1.24	1.2	1.08	1.04	1.09	0.899	0.922	0.953	0.99	0.97	0.967	0.867	0.928	1.06	0.854	0.911
NCI-H596	0.935	0.943	0.725	0.942	0.643	0.804	0.999	0.728	0.805	0.838	0.934	1.13	0.949	0.901	0.837	0.917	0.883	0.86	0.948	0.803
NCI-H2085	0.959	1.13	1.12	1.12	0.809	0.903	0.994	0.989	0.95	0.759	0.891	0.983	1.01	1.05	0.958	0.99	1	0.968	0.94	0.826
NCI-H2023	0.958	0.961	0.945	0.916	0.715	0.81	0.712	0.778	1.09	0.681	0.952	1.01	0.984	0.922	0.901	0.898	0.94	0.926	0.876	0.633
